Reference: patent US11951095B2, “Non-hormonal compositions and methods for male contraception” (PHARMAJOR INTERNATIONAL, priority 2018, dated 2024)
Structures can show the parent of a compound that is named as a salt.

Columns and labels:
male subjects [1] = test: Example 3: single administration contraceptive effect, semen analysis (IR formulation); format: in vivo, human
Protocol: A study is undertaken to evaluate the effectiveness of the compositions of the present invention in the treatment of male subjects. The objective of the study is to determine whether oral intake of (R)-Silodosin formulation results in a contraceptive effect.
A total of 7 subjects, aged 18 to 40 years were enrolled in an open-label study. An initial analysis of each subject's semen, collected via masturbation after 3 days of abstinence, is performed by microscopic examination of the fresh semen. Each subject receives one single dose of 12 mg immediate release (R)-Silodosin.
A semen analysis of each subject is conducted 24 hours after the dosing.

[2] = cited from earlier work
[3] = cited from earlier work; remark: listed apart in the source
[4] = 4 mg twice a day; cited from earlier work
Healthy Volunteers [5] = conditions: 4 mg twice a day for 3 days; cited from earlier work
male subjects [6] = conditions: in vivo; cited from earlier work
healthy volunteer men = conditions: in vivo; cited from earlier work
sexually active men = conditions: in vivo; cited from earlier work
[7] = in vivo; cited from earlier work
participants = conditions: cited from earlier work
prostatic smooth muscle = conditions: cited from earlier work
Healthy Volunteers [8] = conditions: cited from earlier work
male = conditions: cited from earlier work
[9] = single dose 12 mg, immediate release (IR) formulation, 24 h, N = 7
[10] = traditional formulations, with food

## C[C@H](Cc1cc2c(c(C(N)=O)c1)N(CCCO)CC2)NCCOc1ccccc1OCC(F)(F)F [(R)-Silodosin, (−)-(R)-1-(3-hydroxypropyl)-5-[2-[[2-[2-(2,2,2-trifluoroethoxy)phenoxy]ethyl]amino]propyl]indoline-7-carboxamide]
Male subjects [1]; after a 12-mg single dose
  time for which contraception is maintained: up to 24 h
Male subjects [1]; [9]
  Aspermia (subjects with effect): 6/7
  Azoospermia (subjects with effect): 1/7
  Total, aspermia or azoospermia (subjects with effect): 7/7
[2]
  solubility in acetic acid: very soluble
  solubility in alcohol: freely soluble
  solubility in water: very slightly soluble
[3]; CDER NDA 22-206
  median Tmax: about 2 hours
[3]; [10]
  food effect on Cmax: lower
  food effect on Tmax: delayed
[4]
  ejaculatory disorder: high incidence
Healthy Volunteers [5]
  seminal emission: complete lack of seminal emission
Male subjects [6]
  rate of discomfort upon ejaculation: 100%
Healthy volunteer men
  quality of orgasm: decrease
Sexually active men
  erectile function: decrease
[7]
  sexual desire: decrease
participants; 8 mg for 7 days, 2 hours after intake
  spermatozoa in the semen and post-analysis urine: no spermatozoa
participants; Day 8 to 15 placebo, from day 2 of placebo
  semen analysis after switch to placebo: normal semen analysis
participants; on demand 8 mg prior to intercourse, 6 months
  unintended pregnancy: no unintended pregnancy
Prostatic smooth muscle
  uroselectivity compared with other alpha-1 blockers, such as tamsulosin and naftopidil: greater

## CCOc1ccccc1OCCN[C@H](C)Cc1ccc(OC)c(S(N)(=O)=O)c1 [tamsulosin, (−)-(R)-5-[2-[[2-(o-Ethoxyphenoxy)ethyl]amino]propyl]-2-methoxybenzenesulfonamide, monohydrochloride]
Healthy Volunteers [8]; 0.8-mg dose
  ejaculation: An ejaculation was reached
Healthy Volunteers [8]; in vivo
  functional sperm count: significantly reduced
  side effects including discomfort on ejaculation: reported by some subjects
Healthy Volunteers [8]; single dose of 0.4 or 0.8 mg, 4 to 6 hours after dosing
  volume of semen: dose dependent decrease

## CC(COc1ccccc1)N(CCCl)Cc1ccccc1 (centres unmarked) [phenoxybenzamine]
male; doses up to 20 mg/day
  effect following male orgasm: aspermia
male; in vivo
  reversal of ejaculation block with cessation of treatment: fully reversed
